Legend:
[1] = system: Free fatty acid receptor 1 (Homo sapiens), O14842 [R258A]; assay: Agonist activity at human GPR40 R258A mutant expressed in HEK-EM 293 cells assessed as effect on intracellular calcium relative to wild type; format: functional, cell-based; conditions: HEK293
[2] = target: Free fatty acid receptor 1 (Homo sapiens, UniProt O14842, H137F); assay: Agonist activity at human GPR40 H137F mutant expressed in HEK-EM 293 cells assessed as increase in intracellular calcium; format: functional, cell-based, HEK293
Chain of Free fatty acid receptor 1 (Homo sapiens, UniProt O14842, H137F) (O14842 whole entry H137F): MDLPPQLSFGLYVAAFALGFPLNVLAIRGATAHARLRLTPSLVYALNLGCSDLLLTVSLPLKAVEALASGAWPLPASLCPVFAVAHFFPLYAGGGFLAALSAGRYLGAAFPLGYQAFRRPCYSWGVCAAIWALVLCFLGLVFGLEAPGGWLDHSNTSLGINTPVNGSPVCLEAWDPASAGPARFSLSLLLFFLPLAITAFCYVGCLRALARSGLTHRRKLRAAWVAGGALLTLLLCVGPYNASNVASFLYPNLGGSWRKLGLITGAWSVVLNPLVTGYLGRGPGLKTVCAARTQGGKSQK

[3] = system: Free fatty acid receptor 1 (Homo sapiens), O14842 [V237F]; assay: Agonist activity at human GPR40 V237F mutant expressed in HEK-EM 293 cells assessed as increase in intracellular calcium; format: functional, cell-based; conditions: HEK293
Chain of Free fatty acid receptor 1 (Homo sapiens), O14842 [V237F] (O14842 whole entry V237F): as the sequence (O14842 whole entry H137F) above, with F137H, V237F counted along it

[4] = target: Free fatty acid receptor 1 (Homo sapiens, UniProt O14842); assay: Agonist activity at human GPR40 expressed in HEK-EM 293 cells assessed as increase in intracellular calcium; format: functional, cell-based, HEK293
Chain of Free fatty acid receptor 1 (Homo sapiens, UniProt O14842) (O14842 whole entry): as the sequence (O14842 whole entry H137F) above, with F137H counted along it

[5] = target: Free fatty acid receptor 1 (Homo sapiens, UniProt O14842, H86F); assay: Agonist activity at human GPR40 H86F mutant expressed in HEK-EM 293 cells assessed as increase in intracellular calcium; format: functional, cell-based, HEK293
Chain of Free fatty acid receptor 1 (Homo sapiens, UniProt O14842, H86F) (O14842 whole entry H86F): as the sequence (O14842 whole entry H137F) above, with H86F, F137H counted along it

[6] = target: Free fatty acid receptor 1 (Homo sapiens, UniProt O14842, H137A); assay: Agonist activity at human GPR40 H137A mutant expressed in HEK-EM 293 cells assessed as increase in intracellular calcium; format: functional, cell-based, HEK293
Chain of Free fatty acid receptor 1 (Homo sapiens, UniProt O14842, H137A) (O14842 whole entry H137A): as the sequence (O14842 whole entry H137F) above, with F137A counted along it

[7] = target: Free fatty acid receptor 1 (Homo sapiens, UniProt O14842, N244A); assay: Agonist activity at human GPR40 N244A mutant expressed in HEK-EM 293 cells assessed as increase in intracellular calcium; format: functional, cell-based, HEK293
Chain of Free fatty acid receptor 1 (Homo sapiens, UniProt O14842, N244A) (O14842 whole entry N244A): as the sequence (O14842 whole entry H137F) above, with F137H, N244A counted along it

[8] = system: Free fatty acid receptor 1 (Homo sapiens), O14842 [R258K]; assay: Agonist activity at human GPR40 R258K mutant expressed in HEK-EM 293 cells assessed as effect on intracellular calcium relative to wild type; format: functional, cell-based; conditions: HEK293
Chain of Free fatty acid receptor 1 (Homo sapiens), O14842 [R258K] (O14842 whole entry R258K): as the sequence (O14842 whole entry H137F) above, with F137H, R258K counted along it

[9] = system: Free fatty acid receptor 1 (Homo sapiens), O14842 [R183A]; assay: Agonist activity at human GPR40 R183A mutant expressed in HEK-EM 293 cells assessed as effect on intracellular calcium relative to wild type; format: functional, cell-based; conditions: HEK293
Chain of Free fatty acid receptor 1 (Homo sapiens), O14842 [R183A] (O14842 whole entry R183A): as the sequence (O14842 whole entry H137F) above, with F137H, R183A counted along it

[10] = target: Free fatty acid receptor 1 (Homo sapiens, UniProt O14842, H86A); assay: Agonist activity at human GPR40 H86A mutant expressed in HEK-EM 293 cells assessed as increase in intracellular calcium; format: functional, cell-based, HEK293
Chain of Free fatty acid receptor 1 (Homo sapiens, UniProt O14842, H86A) (O14842 whole entry H86A): as the sequence (O14842 whole entry H137F) above, with H86A, F137H counted along it

Chain of Free fatty acid receptor 1 (Homo sapiens), O14842 [R258A] (O14842 whole entry R258A): as the sequence (O14842 whole entry H137F) above, with F137H, R258A counted along it

Molecule `O=C(O)CCc1ccc(NCc2cccc(Oc3ccccc3)c2)cc1` [GW9508] has a Fold change [1] of over 100, an EC50 [2] of 6.8 µM and a Fold change [3] of 1.1. The EC50 [4] was 0.224 µM, the Activity ([4]; HEK293) was 223 nM and the EC50 [5] was 1.2 µM. The EC50 [6] was over 30 µM, the EC50 [7] was 17.8 µM and the Fold change [8] was over 100. It also gave a Fold change [9] of over 100 and an EC50 [10] of 2.2 µM.

From ChEMBL document CHEMBL1145398, “Bidirectional, iterative approach to the structural delineation of the functional "chemoprint" in GPR40 for agonist recognition” (J Med Chem, 2007)
